What was measured:
[1] = test system: fibroblasts cultured on matrix with aligned collagen fibrils (30° condition); assay: αSMA gene expression (RT-qPCR) of fibroblasts on aligned collagen matrix treated with inhibitors; type: cell-based, human; conditions: 3 days; 1 μM verteporfin, 10 μM blebbistatin, 20 μM Y-27632, 2 μM SB-431542; 30° aligned matrix; normalized to fibroblasts
Protocol: Quantitative gene expression analysis: Gene expression analysis for fibroblast differentiation was performed using an established protocol. Briefly, TRIzol (Thermo Fisher Scientific, Dreieich, Germany) was used to extract total RNA. The obtained RNA was converted into complementary DNA (cDNA) using a high-capacity cDNA reverse transcription kit (Applied Biosystems, Waltham, USA). The concentration and the ratio of absorbance at 260 nm and 280 nm of cDNA were quantified using a Nanodrop (Thermo Fisher Scientific, Dreieich, Germany) prior to performing gene expression analysis. Ribosomal protein S26 (RPS26) was used as a reference gene. […] The primer sequences are listed in Table 1. qPCR was performed using SYBR Green PCR Master Mix (Applied Biosystems, Waltham, USA). The qPCR procedure was set as follows: denaturation for 5 min at 95° C.; 45 cycles of denaturation (95° C., 15 s), annealing under primer-specific conditions (30 s) and target gene-specific extension (30 s at 72° C.). The fluorescence signal was measured for 20 s at 72° C. To confirm the specificity of the PCR products, melting curve analysis was performed at the end of each run. Experiments were performed in 4 replicates. Treatment with inhibitors: Fibroblasts cultured onto matrix reconstituted on inclined surfaces with an angle of 30° were treated with 1 μM verteporfin (YAP inhibitor; Sigma-Aldrich, Darmstadt, Germany), 10 μM blebbistatin (myosin inhibitor; Tocris, Bristol, United Kingdom), 20 μM Y-27632 (Rho-associated kinase (ROCK) inhibitor; Tocris, Bristol, United Kingdom) and 2 μM SB-431542 (TGF-31 receptor kinase inhibitor; Sigma-Aldrich, Darmstadt, Germany) for 3 days. After 3 days of treatment, RNA was extracted for the study of αSMA expression using qPCR, as stated in the quantitative gene analysis section. Experiments were performed in 6 replicates.

[2] = test system: fibroblasts cultured on matrix with aligned collagen fibrils (30° condition); assay: Live/dead assay (DRAQ7, flow cytometry) of inhibitor-treated fibroblasts on aligned matrix; type: cell-based; conditions: 3 days; 1 μM verteporfin, 10 μM blebbistatin, 20 μM Y-27632, 2 μM SB-431542; 30° aligned matrix
Protocol: Treatment with inhibitors: Fibroblasts cultured onto matrix reconstituted on inclined surfaces with an angle of 30° were treated with 1 μM verteporfin (YAP inhibitor; Sigma-Aldrich, Darmstadt, Germany), 10 μM blebbistatin (myosin inhibitor; Tocris, Bristol, United Kingdom), 20 μM Y-27632 (Rho-associated kinase (ROCK) inhibitor; Tocris, Bristol, United Kingdom) and 2 μM SB-431542 (TGF-31 receptor kinase inhibitor; Sigma-Aldrich, Darmstadt, Germany) for 3 days. After 3 days of treatment, RNA was extracted for the study of αSMA expression using qPCR, as stated in the quantitative gene analysis section. Experiments were performed in 6 replicates.
Quantitative analysis of cell number and dead cells: Collagen matrices were digested using 2 mg/mL type IV collagenase (Thermo Fisher Scientific, Dreieich, Germany) for 15 min under standard cell culture conditions. Afterwards, cells were stained with DRAQ7 (dead cell staining dye; Biolegend, San Diego, USA) for 10 min on ice. Cells were analyzed using an Attune NxT Flow Cytometer equipped with an autosampler (Thermo Fisher Scientific, Dreieich, Germany). […] The percentage of dead cells was quantified by counting the number of cells that were positive for DRAQ7. At least 20,000 cells were analyzed per condition and replicate. […]

| SMILES | αSMA gene expression [1] | cell death (percentage of dead cells) [2] |
| --- | --- | --- |
| NC(=O)c1ccc(-c2nc(-c3ccc4c(c3)OCO4)c(-c3ccccn3)[nH]2)cc1 [SB-431542] | significantly reduced | – |
| C[C@@H](N)[C@H]1CC[C@H](C(=O)Nc2ccncc2)CC1 [Y-27632] | significantly reduced | – |
| Cc1ccc2c(c1)C(=O)C1(O)CCN(c3ccccc3)C1=N2 (stereo not shown) [blebbistatin] | significantly reduced | without harming cells |

Reference: patent US20260234549A1, “NON-INVASIVE TUNING OF PROTEIN ALIGNMENT” (NEW YORK UNIVERSITY IN ABU DHABI CORPORATION, priority 2023, published 2026)
